One data set concerns LoVo. Nature of the data set: Cell based screen for inhibitors of Raf and/or Mek kinase (SRB), LoVo. Details: species or system human. The following applies: Homo sapiens, 96 h, LoVo cells, four days incubation, (a)/(b)/(c) = average of two/three/five runs. The protocol: Cell Based Screen for Inhibitors of Raf and/or Mek Kinase. Materials
Cell Lines: Human adenocarcinoma cell line LoVo, known to be growth inhibited by low nM concentrations of a reference standard inhibitor of Ras and human adenocarcinoma cell line CaCo-2, known to be growth resistant to the same reference compound.
Cell Media: RPMI 1640 with 10% Fetal Bovine Serum supplemented with L-glutamine and Penicillin/Streptomycin.
Cells are plated at 2000 cells per well for cell line LoVo and 1500 cells for cell line CaCo-2 in 96 well plates. Cells are plated in media (200 μl) and allowed to adhere overnight at 37° C. At 24 hours post plating, compounds are added directly at a volume of 0.5 μl. For the qualitative screen (compounds screened at 25 μM) compound is added directly to cells. For the quantitative screen, compound is first diluted in DMSO to generate concentrations of compound or reference standard of: 1, 5, 10 and 25 μM. It is advisable to make the dilutions in an identical 96 well plate so that compounds can be added using a multichannel micropipettor set at 0.5 μl. The cells are then incubated for four days after which the media is removed using a 12 well manifold by first tipping the plate forward at a 45 degree angle and then inserting the manifold in an upright orientation to prevent the tips of the manifold from disturbing cells at the bottom of the plate. 200 μl of normal saline is then added to each well using an 8 well multichannel pipettor, followed by the careful addition of 50 μl of 50% TCA. The plates are then incubated for 2 hours at 4° C., after which the supernatant is removed using the same technique as above and the plated cells are washed twice with 200 μl water. The plates are then air dried and 50 μl of SRB stock solution is carefully added so that the entire bottom of each well is covered. This again can be done using an 8 well multichannel pipettor. The SRB is incubated with fixed cells for 15 minutes at room temperature after which the SRB is removed with the manifold as described above and the plates washed twice with 350 μl of 1% acetic acid per well each time. The plates are then air dried after which the bound SRB is released from protein by the addition of 200 μl of Tris base. Resolubilizing the SRB is aided by placing the plates on a rotator for 15-30 minutes. The absorbance of each well is determined at 550 or 562 nm using a microtiter plate reader.
Each compound or dilution thereof is performed in triplicate. Outliers are identified by visual inspection of the data. Each plate should have a “0” control (vehicle only).
Quantitative Assay: A standard curve is constructed by plotting the concentration of compound against the average absorbance calculated at that concentration. A curve is plotted and the concentration at which the curve passes through the 50% the absorbance mark seen in the “0” control well is the IC50 calculated for that compound. Multiple entries for a given compound indicate that it is tested multiple times.

For data set [1], the target named is T1, recombinant human MEK 1 (MAPKK) / human ERK2 (MAPK) (Homo sapiens, UniProt P28482+Q02750).
T1 construct: GST; made in house
T1 sequence (P28482 whole entry): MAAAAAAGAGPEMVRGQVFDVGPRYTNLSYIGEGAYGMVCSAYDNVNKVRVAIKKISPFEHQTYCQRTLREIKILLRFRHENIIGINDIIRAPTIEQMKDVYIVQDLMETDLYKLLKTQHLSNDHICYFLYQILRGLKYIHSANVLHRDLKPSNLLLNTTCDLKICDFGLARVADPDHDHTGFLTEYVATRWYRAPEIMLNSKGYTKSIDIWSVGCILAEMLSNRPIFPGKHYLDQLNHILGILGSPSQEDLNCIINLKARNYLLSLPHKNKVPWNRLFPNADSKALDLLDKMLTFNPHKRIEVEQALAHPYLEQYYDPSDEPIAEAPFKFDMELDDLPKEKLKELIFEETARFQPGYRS
T1 sequence (Q02750 whole entry): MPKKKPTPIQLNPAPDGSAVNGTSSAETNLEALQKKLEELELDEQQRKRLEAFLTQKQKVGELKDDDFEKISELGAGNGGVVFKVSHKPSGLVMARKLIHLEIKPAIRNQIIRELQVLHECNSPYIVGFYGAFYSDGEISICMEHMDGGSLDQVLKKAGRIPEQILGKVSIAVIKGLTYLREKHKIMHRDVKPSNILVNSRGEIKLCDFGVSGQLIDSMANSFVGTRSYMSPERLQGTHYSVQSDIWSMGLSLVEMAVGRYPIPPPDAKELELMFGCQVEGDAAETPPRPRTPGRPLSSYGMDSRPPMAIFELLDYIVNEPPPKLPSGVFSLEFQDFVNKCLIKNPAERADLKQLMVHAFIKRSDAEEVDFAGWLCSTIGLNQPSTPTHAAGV
Nature of the data set: Mitogen Activated Protein Kinase (MAPK) test procedure (Mek-Erk coupled). The following applies: MEK1-activated ERK2, 33P ATP, peptide substrate. Format: biochemical. The protocol:
Mitogen Activated Protein Kinase (MAPK) Test Procedure
To evaluate inhibitors of the MAP (mitogen activated protein) kinase a two component coupled standard pharmacological test procedure, which measures phosphorylation of a serine/threonine residue in an appropriate sequence in the substrate in the presence and absence of a putative inhibitor, is used. Recombinant human MEK 1 (MAPKK) is first used to activate recombinant human ERK2 (MAPK) and the activated MAPK (ERK) is incubated with substrate (myelin basic protein peptide (MBPP) or Myc peptide) in the presence of ATP, Mg^+2 and radiolabeled ^33P ATP. The phosphorylated peptide is captured on a P 81 phosphocellulose filter (paper filter or embedded in microtiter plate) ished and counted by scintillation methods.
The peptide substrates used in the assay are MBPP, peptide substrate (APRTPGGRR), or synthetic Myc substrate, (KKFELLPTPPLSPSRR•5 TFA). […]
The reaction is run as follows in 50 mM Tris kinase buffer, pH 7.4 in a reaction volume of 50 ul. […] The filters are briefly air dried before addition of scintillant and samples are counted in the appropriate scintillation counter set up for reading ^33P isotope. […]
The raw data is captured as counts per minute (cpm). […] Mean cpm data is tabulated by group and % inhibition by a test compound is calculated as (corrected cpm control−corrected·cpm sample/control)×100=% inhibition). […]

pIC50: −log10 of the molar value.

For `COc1cc2c(Nc3ccc(Oc4ccccc4)cc3)c(C#N)cnc2cc1OCCN1CCC(N2CCCCC2)CC1` [Example 32, 7-(2-[1,4′]Bipiperidinyl-1′-yl-ethoxy)-6-methoxy-4-(4-phenoxy-phenylamino)-quinoline-3-carbonitrile], the melting point is 141 °C (dec.). The negative-log IC50 (pIC50) in the data set on LoVo was 6.05. In addition, the pIC50 in data set [1] is 7.35.

As usually defined, the melting point is the temperature, or range, at which the solid turns liquid. The term pIC50 denotes the negative decadic logarithm of the IC50, by convention in mol/L.

The values are drawn from patent US7767671B2, “3-Quinolinecarbonitrile protein kinase inhibitors” (Wyeth, priority 2004, dated 2010).
